Measured values from paper PMC3818031 (Acta Crystallographica Section F: Structural Biology and …, 2013).

Molecular target: T1, Ara1 (Saccharomyces cerevisiae, UniProt P38115)
T1 construct: Ni-NTA and Superdex 200; tag cleavage not mentioned; homodimer
Experiment: X-ray crystallography of co-crystal, […] A
Details: co-crystallised with 5 mM NADPH, pH 6.5, 0.05 M CaCl2, 289 K; cofactor-binding site

NC(=O)C1=CN([C@@H]2O[C@H](COP(=O)(O)OP(=O)(O)OC[C@H]3O[C@@H](n4cnc5c(N)ncnc54)[C@H](OP(=O)(O)O)[C@@H]3O)[C@@H](O)[C@H]2O)C=CC1 [NADPH]
X-ray crystallography of co-crystal, 2.00 A: The structure of the Ara1–NADPH complex showed that a molecule of NADPH binds
